Like-named read-outs stand apart in the source and are kept apart here.
What was measured:
Target C = assay: HiBiT protein abundance assay, Target C (K562 HiBiT knock-in); type: cell-based, human; details: HiBiT knock-in K562 cells, 24 hours, top dose 10 μM
How it was run: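 K562 HiBiT knock-in cells (10000/well) were treated 24 h at 37° C with a 10-point 3-fold dilution series (top 10 μM final, ≤0.25% DMSO). HiBiT luminescence was read after lytic LgBiT detection. Percent response used unmodified K562 and DMSO-treated knock-in controls, and IC50 came from a four-parameter fit at 50% of untreated.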

MYB = assay: HiBiT protein abundance assay, MYB (K562 HiBiT knock-in); type: cell-based, human; details: HiBiT knock-in K562 cells, 24 hours, top dose 10 μM
How it was run: (§1)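 Steps: seed HiBiT knock-in K562 cells; add compound in 10-point 3-fold series from 10 μM final; incubate 24 h, 37 °C; add lytic HiBiT reagent, shake 5 min, wait 10 min; read luminescence. Normalize to parental K562 and DMSO controls, fit 4PL, take IC50.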

K562 cells = assay: Cell Titer Glo 2.0 cell viability (toxicity) assay, K562; details: 500 cells/well, 72 hours
MYB mRNA = assay: RT-qPCR splicing assay, MYB mRNA canonical (CJ) and alternative (AJ) junction; type: cell-based, human; details: Homo sapiens; for AC50: MYB alternative junction mRNA, read-out: MYB AJ (increase in AJ mRNA, AC50)
How it was run: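 Junction-specific RT-qPCR read-out: CJ and AJ isoform levels, housekeeper-normalized (GAPDH/GUSB/PPIA), ΔΔCt vs DMSO, converted to RQ then % response. Cells: A673 (DMEM/10% FBS, adhered 24 h) or K562 (IMDM/10% FBS). Compound 11-pt 3-fold, top 10 uM, 24 h, 37 °C.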

HTT = assay: HiBiT protein abundance assay, HTT (K562 HiBiT knock-in); type: cell-based, human; details: HiBiT knock-in K562 cells, 24 hours, top dose 10 μM
How it was run: as §1

[1] = MYB canonical junction mRNA, RT-qPCR, read-out: MYB CJ (decrease in CJ mRNA levels, IC50)
[2] = canonical junction qPCR panel, Table 4, read-out: MYB IC50 (decrease in CJ mRNA levels)

Row | IC50 (Target C) | IC50 (MYB) | IC50 (MYB mRNA; [1]) | IC50 (MYB mRNA; [2]) | IC50 (HTT) | SMILES | Effect of Exemplary Compounds on Cell Viability, K562 (K562 cells) | AC50 (MYB mRNA; RT-qPCR)
1 | 1000 to 10000 nM | < 100 nM | < 100 nM | < 100 nM | 100 to 1000 nM | CNC(=O)c1nc(-c2cc3cn(C)nc3c(C)c2O)nc2ccc(N3CCC(N(C)C)CC3)cc12 [Compound 507, 6-[4-(dimethylamino)piperidin-1-yl]-2-(6-hydroxy-2,7-dimethylindazol-5-yl)-N-methylquinazoline-4-carboxamide] | A (A represents <100 nM) | < 100 nM
2 | 100 to 1000 nM | < 100 nM | < 100 nM | < 100 nM | < 100 nM | CNC(=O)c1nc(-c2cc3cn(C)nc3c(C)c2O)nc2ccc(N3CCC(NC)C3)cc12 (stereo not drawn) [Compound 510, 2-(6-hydroxy-2,7-dimethylindazol-5-yl)-N-methyl-6-[3-(methylamino)pyrrolidin-1-yl]quinazoline-4-carboxamide] | A (A represents <100 nM) | < 100 nM
3 | 1000 to 10000 nM | < 100 nM | < 100 nM | < 100 nM | 100 to 1000 nM | CNC(=O)c1nc(-c2cc3cn(C)nc3c(C)c2O)nc2ccc(N3C[C@@H](C)N[C@@H](C)C3)cc12 [Compound 511, 6-[(3R,5S)-3,5-dimethylpiperazin-1-yl]-2-(6-hydroxy-2,7-dimethylindazol-5-yl)-N-methylquinazoline-4-carboxamide] | A (A represents <100 nM) | < 100 nM
4 | 1000 to 10000 nM | < 100 nM | < 100 nM | < 100 nM | 100 to 1000 nM | CC(=O)c1nc(-c2cc3cn(C)nc3c(F)c2O)nc2ccc(N3CCNCC3)cc12 [Compound 513, 1-(2-(7-fluoro-6-hydroxy-2-methyl-2H-indazol-5-yl)-6-(piperazin-1-yl)quinazolin-4-yl)ethan-1-one 2,2,2-trifluoroacetate] | A (A represents <100 nM) | < 100 nM
5 | 100 to 1000 nM | < 100 nM | < 100 nM | < 100 nM | 100 to 1000 nM | Cn1cc2cc(-c3nc(C#N)c4cc(N5CCNCC5)ccc4n3)c(O)c(F)c2n1 [Compound 514, 2-(7-fluoro-6-hydroxy-2-methylindazol-5-yl)-6-(piperazin-1-yl) quinazoline-4-carbonitrile; trifluoroacetic acid] | A (A represents <100 nM) | < 100 nM
6 | < 100 nM | < 100 nM | < 100 nM | < 100 nM | < 100 nM | Cc1c(O)c(-c2ccc3cc(N4CCNCC4)cc(F)c3n2)cc2cn(C)nc12 [Compound 515, 5-[8-fluoro-6-(piperazin-1-yl)quinolin-2-yl]-2,7-dimethylindazol-6-ol] | A (A represents <100 nM) | < 100 nM
7 | 100 to 1000 nM | < 100 nM | < 100 nM | < 100 nM | < 100 nM | Cn1cc2cc(-c3ccc4cc(N5CCNCC5)cc(F)c4n3)cc(F)c2n1 [Compound 516, 8-fluoro-2-(7-fluoro-2-methylindazol-5-yl)-6-(piperazin-1-yl)quinoline] | B (B represents 100-1000 nM) | 100 to 1000 nM
8 | 100 to 1000 nM | < 100 nM | < 100 nM | < 100 nM | < 100 nM | Cc1cn2cc(-c3ccc4cc(N5CCNCC5)cc(F)c4n3)cc(F)c2n1 [Compound 517, 8-fluoro-2-{8-fluoro-2-methylimidazo[1,2-a]pyridin-6-yl}-6-(piperazin-1-yl)quinoline] | A (A represents <100 nM) | < 100 nM
9 | 1000 to 10000 nM | < 100 nM | < 100 nM | < 100 nM | 1000 to 10000 nM | Cn1cc2cc(-c3nc(C4CC4)c4cc(N5CCNCC5)ccc4n3)c(O)c(F)c2n1 [Compound 518, 5-[4-cyclopropyl-6-(piperazin-1-yl)quinazolin-2-yl]-7-fluoro-2-methylindazol-6-ol; trifluoroacetic acid] | B (B represents 100-1000 nM) | 100 to 1000 nM
10 | 1000 to 10000 nM | 100 to 1000 nM | 100 to 1000 nM | 100 to 1000 nM | 1000 to 10000 nM | Cc1c(O)c(-c2nc(-c3cncs3)c3cc(N4CCNCC4)ccc3n2)cc2cn(C)nc12 [Compound 519, 2,7-dimethyl-5-[6-(piperazin-1-yl)-4-(1,3-thiazol-5-yl)quinazolin-2-yl]indazol-6-ol] | B (B represents 100-1000 nM) | 100 to 1000 nM
11 | 100 to 1000 nM | < 100 nM | 100 to 1000 nM | 100 to 1000 nM | 100 to 1000 nM | Cc1c(O)c(-c2ncc3cc(N4CCNCC4)ccc3n2)cc2cn(C)nc12 [Compound 520, 2,7-dimethyl-5-[6-(piperazin-1-yl)quinazolin-2-yl]indazol-6-ol] | B (B represents 100-1000 nM) | < 100 nM
12 | 1000 to 10000 nM | 100 to 1000 nM | 1000 to 10000 nM | 1000 to 10000 nM | 1000 to 10000 nM | Cc1c(O)c(-c2nc(-c3nnc[nH]3)c3cc(N4CCNCC4)ccc3n2)cc2cn(C)nc12 [Compound 522, 2,7-dimethyl-5-[6-(piperazin-1-yl)-4-(4H-1,2,4-triazol-3-yl)quinazolin-2-yl]indazol-6-ol; bis(trifluoroacetic acid)] | C (C represents 1000-9999 nM) | 1000 to 10000 nM
13 | 1000 to 10000 nM | < 100 nM | < 100 nM | < 100 nM | 100 to 1000 nM | Cc1c(O)c(-c2nc(C(N)=O)c3cc(N4CCNCC4)ccc3n2)cc2cn(C)nc12 [Compound 523, 2-(6-hydroxy-2,7-dimethylindazol-5-yl)-6-(piperazin-1-yl) quinazoline-4-carboxamide] | A (A represents <100 nM) | < 100 nM
14 | > 10000 nM | > 10000 nM | > 10000 nM | > 10000 nM | > 10000 nM | Cc1c(O)c(-c2nc(C(=O)O)c3cc(N4CCNCC4)ccc3n2)cc2cn(C)nc12 [Compound 524, 2-(6-hydroxy-2,7-dimethylindazol-5-yl)-6-(piperazin-1-yl) quinazoline-4-carboxylic acid] | D (D represents greater than 10 μM in K562 cells) | > 10000 nM
15 | 100 to 1000 nM | < 100 nM | < 100 nM | < 100 nM | 100 to 1000 nM | Cc1c(O)c(-c2ncc3cc(N4C[C@@H](C)N[C@@H](C)C4)ccc3n2)cc2cn(C)nc12 [Compound 525, 5-{6-[(3R,5S)-3,5-dimethylpiperazin-1-yl]quinazolin-2-yl}-2,7-dimethylindazol-6-ol] | B (B represents 100-1000 nM) | < 100 nM

Source: patent publication US20250092065A1, “2-(INDAZOL-5-YL)-6-(PIPERIDIN-4-YL)-1,7-NAPHTHYRIDINE DERIVATIVES AND RELATED COMPOUNDS AS MODULATORS FOR SPLICING NUCLEIC ACIDS AND FOR THE TREATMENT OF PROLIFERATIVE DISEASES” (REMIX THERAPEUTICS INC., priority 2022, published 2025)
